Source: patent US5652222A, “Selective inhibition of leukemic cell proliferation by bcr-abl antisense oligonucleotides” (Temple University-of The Commonwealth System of Higher …, priority 1993, dated 1997)

Assays:
BV173 cells (b2/a2) = test: Proliferation of BV173 cells expressing b2a2 junction; assay type: cell-based, human
Method: Amplification of the bcr-abl junction with a 5' primer corresponding to bcr exon 2, and a 3' primer corresponding to abl exon 2, followed by hybridization to an 18-mer specific for the b2/a2 or the b3/a2 junction identified the b2/a2 breakpoint in these cells (data not shown).
The sensitivity of the BV173 cells to b2/a2 antisense phosphorothioate oligodeoxynucleotides was assessed. Phosphorothioate oligodeoxynucleotides were prepared on either an Applied Biosystems Model 380B or 390Z Automated Synthesis instrument using conventional phosphoramidite monomers and manufacturer-recommended procedures, which included substitution of tetraethylthiuran (or an equivalent sulfur-donor reagent) for iodine-water-pyridine, […] reversed-phase preparative chromatography, detritylation, and obtaining the final product in the form of its sodium salt, all according to previously published methodology: Zon and Stec, in Oligonucleotides and Analogues A Practical Approach, F. Eckstein, Ed. (Oxford Univerisity Press, Oxford 1991), pp. 87-108; Zon and Geiser, Anti-Cancer Drug Design 6, 539 (1991); Vu and Hirschenbein, Tetrahedron Lett. 32, 3005-3008 (1991).
BV173 cells were cultured in the presence of phosphorothioate b2/a2 antisense 26-mer CGCTGAAGGG CTTCTTCCT ATTGAT (SEQ ID NO:29), the phosphorothioate sense sequence ATCAATAAGGAAGCCCTTCAGCG (SEQUENCE ID NO:34), or the b3/a2 (SEQ ID NO:31) or b1/a2 (SEQ ID N0:33) phosphorothioate antisense 26-mer. […] The sense oligomer SEQ ID NO:34 gave no inhibition (FIG. 7, -.largecircle.-) in comparison to untreated control cells (FIG. 7, -.quadrature.-).

BV173 cells [1] = test: Clonogenic assay of tissues of leukemic SCID mice; assay type: in vivo, SCID mice (human leukemic cells)
Method: A second assay for leukemic disease comprised a clonogenic assay in semisolid medium. […] By contrast, BV173 cells formed numerous, rapidly growing colonies. To rule out the possibility that the presence of BV173 cells permitted the growth of murine progenitors, mixing experiments were carried out.
(§1) To determine whether synthetic phosphorothioate oligodeoxynucleotides targeted against the bcr-abl junction of […] cells would modify the disease process in SCID mice. SCID mice were injected with 10^6 BV173 cells. The mice then received 1 mg of sense (ATCAATAAGG AAGCCCTTCAGCG, SEQ ID NO:34) or antisense ([…] ATTGAT, SEQ ID NO:29) b2/a2 bcr-abl phosphorothioate oligodeoxynucleotides (pyrogen leven <1 Eu/mg; 0.2 ml in Iscove modified Dulbecco medium in 5-10 seconds) intravenously for each of 9 consecutive days, beginning either 7 or 21 days after introducing 10^6 BV173 cells. Control mice received the diluent (iscove's modified Dulbecco medium) only. These time points approximate distinct disease stages in humans.
10^5 cells were plated in duplicate in 35×10 mm tissue culture dishes (Nunc, Inc., Naperville, Ill.) in HCC-4230 medium (Terry Fox Lab., Vancouver, Canada) supplemented with 2.5 mM L-glutamine, and allowed to grow for 12 days. Plates were scanned with an inverted microscope and total colony number was determined. The results are shown in FIG. 9 (C, untreated mouse; S, sense-treated mouse, AS, antisense-treated mouse).

[2] = tested on: BV173 cells (cALL antigen (CALLA)-positive cells); test: Immunofluorescence / flow cytometry of CALLA-positive cells in tissues of leukemic SCID mice; assay type: in vivo, SCID mice (human leukemic cells)
Method: A first assay comprised an immunofluorescence analysis of cALL antigen (CALLA)-positive cells. All BV173 cells but not normal murine hematopoietic cells express this antigen (assay sensitivity=10^-2). Single cell suspensions were prepared for flow cytometry analysis from peripheral blood, spleen and bone marrow cells of the leukemic SCID mice by centrifugation on a lymphocyte-M gradient (Cedarlane Labs, Ltd., Ontario, Canada). Cells (1×10^5) were stained with the FITC-conjugated mouse anti-CALLA monoclonal antibody (Becton-Dickinson Immunocytometry Systems, San Jose, Calif.) to human CD10 antigen. After staining, cells were washed and analyzed by flow cytometry using the Epics Profile Analyzer (Coulter Electronic).
as §1

[3] = tested on: bcr-abl (b2/a2) transcripts; test: RT-PCR of bcr-abl transcripts in tissues of leukemic SCID mice; assay type: in vivo, SCID mice (human leukemic cells)
Method: According to a third assay, the extent of leukemic disease was assessed by chain RT-PCR to monitor the expression of b2/a2 transcripts (assay sensitivity=[…]) in total RNA isolated from bone marrow cells, splenocytes, peripheral blood leukocytes, liver, lung and brain tissues. Depending on the number of BV173 cells injected, various numbers of leukemic cells were detected by clonogenic assay and RT-PCR in murine tissues, 3 and 6 weeks after injection. A few days before the expected death of leukemic SCID mice, approximately 80, 65, and 10% cALLA-positive cells were detected in bone marrow cells, splenocytes and peripheral blood leukocytes, respectively.
as §1
At 7 (+7) and 21 (+21) days after injecting SCID mice with 10^6 BV173 cells, single cell suspensions were prepared from various tissues. After lysing red cells with 0.83% NH4 Cl buffered with 0.17 mM Tris-HCl, pH 7.4, total RNA was extracted as described (Chomczynski and Sacchi, Anal. Biochem. 162, 156 (1987)) and the suspension was divided into two equal aliquots. Bcr-abl and β-actin transcripts were reverse-transcribed and amplified with specific primers and Taq polymerase as described by Szczylik et al., Science 253, 562 (1991). Amplification products were separated on a 2% agarose gel, transferred to a nitrocellulose filter and hybridized with a synthetic 40-base c-abl fragment or 20-base β-actinfragment end-labeled with [γ^32 -P]-ATP and polynucleotide kinase. The c-abl probe recognizes an amplified 257-bp sequence containing the bcr-abl junction: the β-actin probe recognizes a 209-bp fragment, contained within the 5' and 3' β-actin primers (Tokunaga et al., Nucleic Acids Res. 14, 2829 (1986)).

BV173 cells [4] = test: Macroscopic examination / disease state of leukemic SCID mice; assay type: in vivo, SCID mice (human leukemic cells)
Method: Injection of the mice with BV173 cells induces a disease closely resembling that in human leukemia patients.
as §1

BV173 cells [5] = test: Survival of leukemic SCID mice; assay type: in vivo, SCID mice (human leukemic cells); details: treatment starting from days +7 or +21 (FIG. 12)
Source text: To determine the lethal dose of BV173 cells in the SCID mice, we injected from 10^3 to 10^7 cells into the tail vein and monitored survival at various times postinjection. Mice injected with 10^7, 10^6, 10^5, or 10^4 BV173 cells died 8-10, 9-12, 13-15, or 14-22 weeks later, respectively, due to leukemia cell growth as confirmed on necroscopy. Spleen weight was about 40 times higher than that in noninjected SCID mice while liver and kidneys had numerous metastases and were enlarged 10-fold as compared to noninjected mice. Mice injected with 10^3 BV173 cells were still alive 35 weeks post implantation, and leukemia was never detected. From this study, 10^6 cells was taken as a lethal dose.
as §1

[6] = assay type: in vivo, SCID mice; details: mice treated with bcr-abl antisense
Method: Severe combined immunodeficient (SCID) mice injected with leukemia cells developed a disease process closely resembling that in humans. […] The cell-associated accumulation of antisense oligomer in various organs reached 4-60 μM, which is more than adequate to inhibit growth of leukemic cells. (See FIG. 7).

[7] = tested on: cell line ALL-1 (b1a2 junction); test: Leukemic cell number of Ph1-positive ALL cell line expressing b1a2 junction; assay type: cell-based, human; details: 50 μg at time zero, 25 μg/ml at 24 and 48 h; vs control and mismatch-treated cultures (FIG. 6)
K562 = details: Caracciolo et al., Science 245; cited from earlier work
bcr-abl protein = details: cited from earlier work
[8] = from day +21, 26 days after treatment (8 weeks)

## SEQ ID NO:29: b2a2 antisense phosphorothioate 26-mer CGCTGAAGGGCTTCTTCCTT ATTGAT (antisense CGCTGAAGGGCTTCTTCCTTATTGAT; all phosphorothioate, sugars by position and methylation of C not given here)
BV173 cells (b2/a2); 3.0 μM, 9 days in culture
  inhibition of proliferation: 100%
BV173 cells (b2/a2); in comparison to untreated control cells (FIG. 7)
  inhibition of proliferation of BV173 cells: Only the b2/a2 antisense oligodeoxynucleotide inhibited the proliferation of BV173 cells
BV173 cells [1]; 1 mg/day i.v. x9 from day +7, killed 26 days after last treatment (6 weeks)
  leukemic colonies, peripheral blood leukocytes: no detectable colonies
BV173 cells [1]; 1 mg/mouse/day x9 from day +21, 12 days after last treatment (6 weeks), untreated 11.0±8.5
  leukemic colonies, peripheral blood mononuclear cells: 0 colonies
BV173 cells [1]; 1 mg/mouse/day x9 from day +21, 12 days after last treatment (6 weeks), untreated 80.5±12.0
  leukemic colonies, spleen: 0 colonies
BV173 cells [1]; 1 mg/mouse/day x9 from day +21, 26 days after treatment (8 weeks)
  leukemic colonies, bone marrow: not after antisense treatment
[2]; from day +7, 26 days after last treatment (6 weeks)
  CALLA+ cells in tissues: No CALLA+ cells were detected
[2]; from day +21, 12 days after last treatment (6 weeks)
  CALLA+ cells in tissues: not detected after antisense treatment
[2]; [8]
  CALLA+ cells in tissues: not detected in the antisense-treated mouse
[3]; from day +7, 12 days after last treatment (4 weeks), blood, spleen, bone marrow, liver, lung, brain
  bcr-abl transcripts in tissues: not in the antisense-treated mouse
[3]; from day +7, 26 days after last treatment (6 weeks), blood leukocytes, spleen, bone marrow, liver, lung, brain
  bcr-abl (b2/a2) transcripts in tissues: no bcr-abl (b2/a2) transcripts in the tissues
[3]; [8]
  RT-PCR product (bcr-abl), spleen: less abundant than in the sense-treated mouse
  bcr-abl transcripts in tissues: undetectable after antisense-treatment in each tissue analyzed except spleen
BV173 cells [4]; 1 mg/mouse x9 i.v. from day 7
  apparently disease-free, days after injection of leukemic cells: ≥ 42 days
BV173 cells [4]; 1 mg/mouse x9 i.v. from day 21
  apparently disease-free, days after injection of leukemic cells: ≥ 56 days
BV173 cells [4]; SCID mice injected with BV173 cells
  protection from leukemic disease: protected from the disease
BV173 cells [4]; from day +21, 26 days after treatment (8 weeks), FIG. 11
  macroscopic examination: metastases / leukemic nodules in liver, kidneys, splenomegaly: not in antisense-treated animal
BV173 cells [5]
  mortality / survival outcome: prolonged survival
  survival after i.v. injection of 10^6 BV173 cells: ≥ 16 weeks
[6]
  cell-associated accumulation of antisense oligomer in various organs: 4 to 60 µM

## SEQ ID NO:9: 18-mer antisense oligonucleotide GAAGGGCTTC TGCGTCTC completely complementary to the b1a2 junction (antisense GAAGGGCTTCTGCGTCTC; chemistry not given here)
[7]
  leukemic cell number: significant reduction in leukemic cell number over the control and mismatch-treated cultures

## SEQ ID NO:27: antisense oligodeoxynucleotide TACTGGCCGC TGAAGGGC complementary to 18 nucleotides of the second exon of c-abl (antisense TACTGGCCGCTGAAGGGC; DNA, backbone and methylation of C not given here)
K562
  inhibition of the Ph1-positive cell line K562: inhibition of the Ph^1 -positive cell line K562
bcr-abl protein; Caracciolo et al., Science 245
  reducing bcr-abl protein levels: effective in reducing bcr-abl protein levels
bcr-abl protein; hybridization to message from untranslocated abl
  specificity for the bcr-abl junction: not specific for the bcr-abl junction, as it also hybridizes to the message from untranslocated abl
